From ChEMBL document CHEMBL3785044, “Phenobarbital metabolism in adults and in newborn infants” (Acta Paediatr Scand, 1978)

Legend:
[1] = Disposition rate constant in newborn infants at 20.6 mg/kg, po by gas chromatography; assay type: ADME, organism-based; conditions: human, in vivo
[2] = test system: Homo sapiens; assay: Apparent volume of distribution in newborn infants at 20.6 mg/kg, po by gas chromatography; assay type: ADME, organism-based; conditions: in vivo
[3] = Drug excretion in subject assessed as phenobarbital, p-hydroxyphenobarbital and conjugated p-hydroxyphenobarbital level in urine at 5.21 mg/kg, po measured during first 2 weeks by gas chromatography; assay type: ADME, organism-based; conditions: human, in vivo, 336 h
[4] = test system: Homo sapiens; assay: Apparent volume of distribution in newborn infants (2 patients) at 12 mg/kg, im by gas chromatography; assay type: ADME, organism-based; conditions: in vivo
[5] = test system: Homo sapiens; assay: Apparent drug level in newborn infants at 11.4 mg/kg, po measured at time zero by gas chromatography; assay type: ADME, organism-based; conditions: in vivo
[6] = Disposition rate constant in subject at 5.21 mg/kg, po by gas chromatography; assay type: ADME, organism-based; conditions: female, human, in vivo
[7] = Half life in newborn infants at 20.6 mg/kg, po by gas chromatography; assay type: ADME, organism-based; conditions: human, in vivo
[8] = Plasma concentration in subject at 5.21 mg/kg, po measured after 17 days by gas chromatography; assay type: ADME, organism-based; conditions: female, human
[9] = Half life in subject at 5.21 mg/kg, po by gas chromatography; assay type: ADME, organism-based; conditions: female, human, in vivo
[10] = Drug excretion in newborn infants (4 patients) assessed as p-hydroxy phenobarbital level in urine at measured during first 8 days by gas chromatography; assay type: ADME, tissue-based; conditions: human, in vivo, 192 h
[11] = Half life in subject at 4.33 mg/kg, po by gas chromatography; assay type: ADME, organism-based; conditions: male, human, in vivo
[12] = test system: Homo sapiens; assay: Apparent drug level in newborn infants (2 patients) at 12 mg/kg, im measured at time zero by gas chromatography; assay type: ADME, organism-based; conditions: in vivo
[13] = test system: Homo sapiens; assay: Half life in newborn infants (2 patients) at 12 mg/kg, im by gas chromatography; assay type: ADME, organism-based; conditions: in vivo
[14] = Drug excretion in newborn infants (4 patients) assessed as unchanged compound level in urine at measured during first 8 days by gas chromatography; assay type: ADME; conditions: human, read-out: Drug excretion
[15] = Drug excretion in subject assessed as phenobarbital, p-hydroxyphenobarbital and conjugated p-hydroxyphenobarbital level in urine at 5.21 mg/kg, po measured during 4 week period by gas chromatography; assay type: ADME, organism-based; conditions: human, in vivo, 672 h
[16] = Drug excretion in subject assessed as phenobarbital, p-hydroxyphenobarbital and conjugated p-hydroxyphenobarbital level in urine at 4.33 mg/kg, po measured during first 2 weeks by gas chromatography; assay type: ADME, organism-based; conditions: human, in vivo, 336 h
[17] = test system: Homo sapiens; assay: Apparent drug level in subject at 4.33 mg/kg, po measured at time zero by gas chromatography; assay type: ADME, organism-based; conditions: in vivo
[18] = test system: Homo sapiens; assay: Disposition rate constant in newborn infants (2 patients) at 12 mg/kg, im by gas chromatography; assay type: ADME, organism-based; conditions: in vivo
[19] = Disposition rate constant in newborn infants at 11.4 mg/kg, im by gas chromatography; assay type: ADME, organism-based; conditions: human, in vivo
[20] = Drug excretion in po dosed adult (2 subjects) assessed as unchanged compound level in urine at measured during first 8 days by gas chromatography; assay type: ADME, organism-based; conditions: human, read-out: Drug excretion
[21] = test system: Homo sapiens; assay: Apparent drug level in newborn infants at 20.6 mg/kg, po measured at time zero by gas chromatography; assay type: ADME, organism-based; conditions: in vivo
[22] = test system: Homo sapiens; assay: Apparent volume of distribution in male subject at 4.33 mg/kg, po by gas chromatography; assay type: ADME, organism-based; conditions: in vivo
[23] = test system: Homo sapiens; assay: Apparent volume of distribution in newborn infants at 11.4 mg/kg, im by gas chromatography; assay type: ADME, organism-based; conditions: in vivo
[24] = Disposition rate constant in subject at 4.33 mg/kg, po by gas chromatography; assay type: ADME, organism-based; conditions: male, human, in vivo
[25] = test system: Homo sapiens; assay: Apparent drug level in subject at 5.21 mg/kg, po measured at time zero by gas chromatography; assay type: ADME, organism-based; conditions: in vivo
[26] = test system: Homo sapiens; assay: Apparent volume of distribution in subject at 5.21 mg/kg, po by gas chromatography; assay type: ADME, organism-based; conditions: in vivo
[27] = Half life in newborn infants at 11.4 mg/kg, im by gas chromatography; assay type: ADME, organism-based; conditions: human, in vivo

CCC1(c2ccccc2)C(=O)NC(=O)NC1=O [PHENOBARBITAL]
k el [1]: 2.33e-06 s⁻¹ | Vd(app) [2]: 0.98 L/kg | Drug excretion [3]: 65% | Vd(app) [4]: 0.59 L/kg | Drug uptake [5]: 17.8 µg/mL | k el [6]: 1.64e-06 s⁻¹ | half-life [7]: 83 h | concentration at 408 h [8]: 500 ng/mL | half-life [9]: 117 h | Drug excretion [10]: 10% | half-life [11]: 84 h | Drug uptake [12]: 18.1 µg/mL | t1/2 [13]: 61 h | dose excreted at 192 h [14]: 17% | Drug excretion [15]: 75% | Drug excretion [16]: 35% | Drug uptake [17]: 9.3 µg/mL | K [18]: 0.004 h⁻¹ | k el [19]: 1.61e-06 s⁻¹ | dose excreted at 192 h [20]: 16% | Drug uptake [21]: 21 µg/mL | Vd(app) [22]: 0.47 L/kg | Vd(app) [23]: 0.99 L/kg | k el [24]: 2.28e-06 s⁻¹ | Drug uptake [25]: 10 µg/mL | Vd(app) [26]: 0.52 L/kg | half-life [27]: 119 h
